According to patent publication US20070093520A1, “Method of treatment of diarrhea-predominant irritable bowel syndrome in a subject” (priority 2005, published 2007):

Tested on: diarrhea-predominant IBS subjects
Experiment: 3007 Study: open-label 52-week safety study, adverse events and withdrawals
Conditions: Placebo/Cilansetron 2 mg

Cc1nccn1C[C@H]1CCc2c(c3cccc4c3n2CCC4)C1=O [cilansetron, (R)-(−)-4,5,6,8,9,10-hexahydro-10-[(2-methyl-1H-imidazol-1-yl)methyl]-11H-pyrido-[3,2,1-jk]-carbazol-11-one]
TEAE: Eructation: 0 n (%)
TEAE: Eye Injuries NEC: 0 n (%)
TEAE: Faecal Abnormality NOS: 1 (<1%) n (%)
TEAE: Faecal Impaction: 1 (<1%) n (%)
TEAE: Faecal Incontinence: 3 (1%) n (%)
TEAE: Faecal Occult Blood Positive: 8 (3%) n (%)
TEAE: Faeces Abnormal: 7 (3%) n (%)
TEAE: Faeces Hard: 5 (2%) n (%)
TEAE: Fibromyalgia: 0 n (%)
TEAE: Flatulence: 10 (4%) n (%)
TEAE: Flatulence, Bloating and Distension: 13 (5%) n (%)
TEAE: Food Poisoning NOS: 2 (<1%) n (%)
TEAE: Foot Fracture: 1 (<1%) n (%)
TEAE: Fractures and Dislocations NEC: 0 n (%)
TEAE: Frequent Bowel Movements: 0 n (%)
TEAE: Fungal Infection NOS: 1 (<1%) n (%)
TEAE: Fungal Infections NEC: 4 (1%) n (%)
TEAE: Gamma-Glutamyltransferase Increased: 3 (1%) n (%)
TEAE: Gastric Irritation: 0 n (%)
TEAE: Gastritis (Excl Infective): 0 n (%)
TEAE: Gastritis NOS: 0 n (%)
TEAE: Gastroenteritis NOS: 5 (2%) n (%)
TEAE: Gastroenteritis Viral NOS: 6 (2%) n (%)
TEAE: Gastrointestinal Atonic and Hypomotility Disorders NEC: 63 (23%) n (%)
TEAE: Gastrointestinal Disorders: 134 (48%) n (%)
TEAE: Gastrointestinal Disorders NEC: 2 (<1%) n (%)
TEAE: Gastrointestinal Dyskinetic Disorders: 2 (<1%) n (%)
TEAE: Gastrointestinal Histopathology Procedures: 12 (4%) n (%)
TEAE: Gastrointestinal Infections - Pathogen Class Unspecified: 5 (2%) n (%)
TEAE: Gastrointestinal Inflammatory Disorders NEC: 1 (<1%) n (%)
TEAE: Gastrointestinal Motility Disorder NOS: 1 (<1%) n (%)
TEAE: Gastrointestinal Mucosal Dystrophies and Secretion Disorders: 0 n (%)
TEAE: Gastrointestinal Signs and Symptoms NEC: 2 (<1%) n (%)
TEAE: Gastrointestinal Spastic and Hypermotility Disorders: 0 n (%)
TEAE: Gastrointestinal and Abdominal Pains (Excl Oral and Throat): 33 (12%) n (%)
TEAE: Gingival Abscess: 0 n (%)
TEAE: Gingival Atrophy: 0 n (%)
TEAE: Gingival Disorders NEC: 2 (<1%) n (%)
TEAE: Gingival Pain: 0 n (%)
TEAE: Gingival Pains: 0 n (%)
TEAE: Gingivitis: 2 (<1%) n (%)
TEAE: Gingivitis Infection NOS: 0 n (%)
TEAE: Glucose Urine Present: 0 n (%)
TEAE: Groin Pain: 0 n (%)
TEAE: Haematocrit Decreased: 0 n (%)
TEAE: Haemoglobin Decreased: 0 n (%)
TEAE: Haemorrhoidal Haemorrhage: 2 (<1%) n (%)
TEAE: Haemorrhoids: 7 (3%) n (%)
TEAE: Haemorrhoids Aggravated: 1 (<1%) n (%)
TEAE: Haemorrhoids and Gastrointestinal Varices (Excl Oesophageal): 9 (3%) n (%)
TEAE: Halitosis: 0 n (%)
TEAE: Headache NOS: 12 (4%) n (%)
TEAE: Headache NOS Aggravated: 2 (<1%) n (%)
TEAE: Headaches NEC: 14 (5%) n (%)
TEAE: Heart Rate Increased: 1 (<1%) n (%)
TEAE: Heart Rate and Pulse Investigations: 1 (<1%) n (%)
TEAE: Heat Exhaustion: 0 n (%)
TEAE: Heat Injuries (Excl Thermal Burns): 0 n (%)
TEAE: Helicobacter Pylori Antibody Positive: 0 n (%)
TEAE: Herpes Simplex: 1 (<1%) n (%)
TEAE: Herpes Simplex Aggravated: 0 n (%)
TEAE: Herpes Viral Infections: 2 (<1%) n (%)
TEAE: Herpes Zoster: 1 (<1%) n (%)
TEAE: Hiatus Hernia: 0 n (%)
TEAE: Hyperreflexia: 0 n (%)
TEAE: Hypoaesthesia: 1 (<1%) n (%)
TEAE: Infected Varicose Vein: 0 n (%)
TEAE: Infections NEC: 1 (<1%) n (%)
TEAE: Infections and Infestations: 67 (24%) n (%)
TEAE: Influenza: 7 (3%) n (%)
TEAE: Influenza Viral Infections: 7 (3%) n (%)
TEAE: Inguinal Hernia NOS: 1 (<1%) n (%)
TEAE: Inguinal Hernias: 1 (<1%) n (%)
TEAE: Injury, Poisoning and Procedural Complications: 21 (8%) n (%)
TEAE: Intervertebral Disc Degeneration NOS: 0 n (%)
TEAE: Intervertebral Disc Disorder NOS: 0 n (%)
TEAE: Intervertebral Disc Disorders NEC: 0 n (%)
TEAE: Intervertebral Disc Herniation: 0 n (%)
TEAE: Intestinal Haemorrhages: 4 (1%) n (%)
TEAE: Intraocular Pressure Increased: 1 (<1%) n (%)
TEAE: Investigations: 49 (18%) n (%)
TEAE: Irritable Bowel Syndrome: 0 n (%)
TEAE: Irritable Bowel Syndrome Aggravated: 0 n (%)
TEAE: Joint Related Disorders NEC: 1 (<1%) n (%)
TEAE: Joint Related Signs and Symptoms: 3 (1%) n (%)
TEAE: Joint Sprain: 3 (1%) n (%)
TEAE: Joint Swelling: 0 n (%)
TEAE: Kidney Infection NOS: 1 (<1%) n (%)
TEAE: Laceration: 3 (1%) n (%)
TEAE: Ligament Sprain: 1 (<1%) n (%)
TEAE: Limb Discomfort NOS: 1 (<1%) n (%)
TEAE: Limb Injuries NEC (Incl Traumatic Amputation): 3 (1%) n (%)
TEAE: Limb Injury NOS: 0 n (%)
TEAE: Lip and Palate Disorders NEC: 1 (<1%) n (%)
TEAE: Liver Function Analyses: 11 (4%) n (%)
TEAE: Liver Function Tests NOS Abnormal: 2 (<1%) n (%)
TEAE: Localised Infection: 1 (<1%) n (%)
TEAE: Localised Osteoarthritis: 0 n (%)
TEAE: Loss of Consciousness: 0 n (%)
TEAE: Lower Limb Fracture NOS: 1 (<1%) n (%)
TEAE: Lower Limb Fractures and Dislocations: 2 (<1%) n (%)
TEAE: Lower Respiratory Tract and Lung Infections: 7 (3%) n (%)
TEAE: Lymphocyte Count Increased: 0 n (%)
TEAE: Memory Loss (Excl Dementia): 0 n (%)
TEAE: Metabolic Bone Disorders: 1 (<1%) n (%)
TEAE: Metabolism Tests NEC: 2 (<1%) n (%)
TEAE: Migraine Headaches: 0 n (%)
TEAE: Migraine NOS: 0 n (%)
TEAE: Mineral and Electrolyte Analyses: 0 n (%)
TEAE: Monoarthritis: 1 (<1%) n (%)
TEAE: Monocyte Count Decreased: 1 (<1%) n (%)
TEAE: Monocyte Count Increased: 0 n (%)
TEAE: Mononeuropathies: 1 (<1%) n (%)
TEAE: Movement Disorder NOS: 1 (<1%) n (%)
TEAE: Muscle Cramps: 2 (<1%) n (%)
TEAE: Muscle Infections and Inflammations: 1 (<1%) n (%)
TEAE: Muscle Pains: 1 (<1%) n (%)
TEAE: Muscle Related Signs and Symptoms NEC: 2 (<1%) n (%)
TEAE: Muscle Spasms: 0 n (%)
TEAE: Muscle Strain: 3 (1%) n (%)
TEAE: Muscle Tone Abnormalities: 0 n (%)
TEAE: Muscle, Tendon and Ligament Injuries: 4 (1%) n (%)
TEAE: Musculoskeletal Chest Pain: 0 n (%)
TEAE: Musculoskeletal and Connective Tissue Disorders: 31 (11%) n (%)
TEAE: Musculoskeletal and Connective Tissue Signs and Symptoms NEC: 14 (5%) n (%)
TEAE: Musculoskeletal and Soft Tissue Imaging Procedures: 1 (<1%) n (%)
TEAE: Myalgia: 1 (<1%) n (%)
TEAE: Myasthenia Gravis: 1 (<1%) n (%)
TEAE: Mycoplasma Infections: 0 n (%)
TEAE: Myeloradiculopathy: 1 (<1%) n (%)
TEAE: Myositis: 1 (<1%) n (%)
TEAE: Nail Fungal Infection NOS: 2 (<1%) n (%)
TEAE: Nail Infection NOS: 0 n (%)
TEAE: Nasopharyngitis: 10 (4%) n (%)
TEAE: Nausea: 10 (4%) n (%)
TEAE: Nausea and Vomiting Symptoms: 14 (5%) n (%)
TEAE: Neck Pain: 0 n (%)
TEAE: Nervous System Disorders: 23 (8%) n (%)
TEAE: Neurological Signs and Symptoms NEC: 2 (<1%) n (%)
TEAE: Neuromuscular Junction Dysfunction: 1 (<1%) n (%)
TEAE: Neutrophil Count Decreased: 0 n (%)
TEAE: Night Cramps: 0 n (%)
TEAE: Nitrite Urine Present: 1 (<1%) n (%)
TEAE: Non-Accidental Overdose: 0 n (%)
TEAE: Non-Site Specific Injuries NEC: 6 (2%) n (%)
TEAE: Non-Site Specific Procedural Complications: 5 (2%) n (%)
TEAE: Ophthalmic Function Diagnostic Procedures: 1 (<1%) n (%)
TEAE: Oral Dryness and Saliva Altered: 1 (<1%) n (%)
TEAE: Osteoarthritis Aggravated: 0 n (%)
TEAE: Osteoarthropathies: 0 n (%)
TEAE: Osteopenia: 1 (<1%) n (%)
TEAE: Osteoporosis NOS: 1 (<1%) n (%)
TEAE: Otitis Media NOS: 1 (<1%) n (%)
TEAE: Overdoses: 0 n (%)
TEAE: Pain in Limb: 4 (1%) n (%)
TEAE: Paraesthesias and Dysaesthesias: 1 (<1%) n (%)
TEAE: Parkinson's Disease NOS: 0 n (%)
TEAE: Parkinson's Disease and Parkinsonism: 0 n (%)
TEAE: Periorbital Haematoma: 0 n (%)
TEAE: Peripheral Swelling: 0 n (%)
TEAE: Pharyngitis Streptococcal: 3 (1%) n (%)
TEAE: Physical Examination Procedures: 1 (<1%) n (%)
TEAE: Plantar Fasciitis: 2 (<1%) n (%)
TEAE: Pneumonia Mycoplasmal: 0 n (%)
TEAE: Pneumonia NOS: 1 (<1%) n (%)
TEAE: Popliteal Bursitis: 1 (<1%) n (%)
TEAE: Post Procedural Discomfort: 1 (<1%) n (%)
TEAE: Post Procedural Pain: 4 (1%) n (%)
TEAE: Proctalgia: 4 (1%) n (%)
